Assay results taken from patent US8853246B2 (Dow AgroSciences LLC, priority 2009, dated 2014).

Assays:
[1] = test system: Green Peach Aphid (Myzus Persicae); experiment: Insecticidal test for green peach aphid in foliar spray assay (col. MYZUPE); type: in vivo; conditions: Myzus persicae, 72 h, green peach aphid, read-out: MYZUPE 200 ppm (Corrected % Control, rating)
In short: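 Cabbage seedlings with 2-3 true leaves, infested with 20-50 wingless adult and nymph aphids one day earlier, sprayed to runoff at 200 ppm (acetone/methanol stock diluted in 0.025% Tween 20), four pots per treatment. After 3 days at ~25 °C, 40% RH, live aphids counted; corrected % control versus solvent-sprayed plants.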

[2] = test system: Sweetpotato Whitefly-Crawler (Bemisia Tabaci); experiment: Insecticidal test for sweetpotato whitefly-crawler in foliar spray assay (col. BEMITA); type: in vivo; conditions: Bemisia tabaci, sweetpotato whitefly-crawler, read-out: BEMITA 200 ppm (Corrected % Control, rating)
In short: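 Cotton plants (one 3-5 cm true leaf) infested with whitefly eggs (100-300/plant), held 5-6 days at 82° F, 50% RH until crawlers developed. Sprayed to runoff at 200 ppm (acetone stock diluted in 0.025% Tween 20), four plants per treatment. Live nymphs counted after 8-9 days; % control by Abbott's correction versus solvent check.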

| Compound | pest or weed control at 200 ppm [1] | pest or weed control at 200 ppm [2] | melting point |
| --- | --- | --- | --- |
| CN(C(=O)OC(C)(C)C)c1sc(-c2cncc(F)c2)nc1Br [Compound 318] | 80 to 100% | < 80% | 108 to 110 °C |
| COCC(C)OC(=O)Nc1sc(-c2cccnc2)nc1C (stereo not drawn) [Compound 325] | 80 to 100% | 80 to 100% | 106 to 111 °C |
| CCN(C(=O)C(C)CS(C)(=O)=O)c1sc(-c2cccnc2)nc1Cl (stereo not drawn) [Compound 349] | 80 to 100% | 80 to 100% | 152 to 154 °C |
| CC(C)(C)OC(=O)N(C(=O)OC(C)(C)C)c1sc(-c2cncc(F)c2)nc1Cl [Compound 352] | 80 to 100% | < 80% | 125 to 128 °C |
| Cc1nc(-c2cccnc2)sc1NC(=O)c1cnn(C)c1 [Compound 355] | 80 to 100% | < 80% | 219 to 222 °C |
| C=CCN(C(=O)OC(C)(C)C)c1sc(-c2cccnc2)nc1C [Compound 356] | 80 to 100% | 80 to 100% | 72 to 76 °C |
| CSC(C)C(=O)N(C)c1sc(-c2cccnc2)nc1Cl (stereo not drawn) [Compound 361] | 80 to 100% | < 80% | 97 to 104 °C |
| CN(C(=O)OC(C)(C)C)c1sc(-c2cncc(F)c2)nc1F [Compound 366] | 80 to 100% | 80 to 100% | 81 to 84 °C |
| CSCC(=O)N(C)c1sc(-c2cccnc2)nc1Cl [Compound 369] | 80 to 100% | 80 to 100% | 111 to 114 °C |
| CCSCC(=O)N(C)c1sc(-c2cccnc2)nc1Cl [Compound 370] | 80 to 100% | 80 to 100% | 68 to 71 °C |
| CSCC(=O)Nc1sc(-c2cccnc2)nc1C [Compound 372] | 80 to 100% | 80 to 100% | 164 to 167 °C |
| CCSCC(=O)Nc1sc(-c2cccnc2)nc1C [Compound 373] | 80 to 100% | 80 to 100% | 157 to 158 °C |
| CSCCCC(=O)Nc1sc(-c2cccnc2)nc1C [Compound 374] | 80 to 100% | 80 to 100% | 110 to 112 °C |
| Cc1nc(-c2cccnc2)sc1NC(=O)OC1CCCCC1 [Compound 375] | < 80% | < 80% | 163 to 167 °C |
| CCCC(C)OC(=O)Nc1sc(-c2cccnc2)nc1C (stereo not drawn) [Compound 376] | 80 to 100% | 80 to 100% | 88 to 94 °C |
| CCCCOC(=O)Nc1sc(-c2cccnc2)nc1C [Compound 377] | < 80% | 80 to 100% | 108 to 110 °C |
| Cc1nc(-c2cccnc2)sc1NC(=O)OC(C)C(F)(F)F (stereo not drawn) [Compound 378] | 80 to 100% | 80 to 100% | 133 to 137 °C |
| COCCOC(=O)Nc1sc(-c2cccnc2)nc1C [Compound 379] | 80 to 100% | < 80% | 131 to 134 °C |
| Cc1nc(-c2cccnc2)sc1NC(=O)OCC(F)(F)F [Compound 380] | < 80% | < 80% | 170 to 178 °C |
| Cc1nc(-c2cccnc2)sc1NC(=O)c1cccc(SC(F)F)c1 [Compound 381] | < 80% | < 80% | 158 to 159 °C |
| CCc1cc(C(=O)N(C)c2sc(-c3cccnc3)nc2Cl)no1 [Compound 383] | < 80% | 80 to 100% | 121 to 124 °C |
| Cc1nc(-c2cccnc2)sc1N(C)C(=S)NC(C)C [Compound 386] | 80 to 100% | 80 to 100% | 163 to 164 °C |
